Assay results as given in patent US11850220B2 (Augusta University Research Institute, Inc., priority 2020, dated 2023).

Tests used:
[1] = test system: acetic acid-induced abdominal writhing; assay: acetic acid-induced abdominal writhing technique (peripheral analgesic); format: in vivo; settings: for Potency: Relative to indomethacin; for % Inhibition/protection / Writing reflex ± SEM: in vivo; as to % Inhibition/protection: test concentration or dose not given here; as to Writing reflex ± SEM: test concentration or dose not given here
COX-2 = target: T1, COX-2 (Homo sapiens, UniProt P35354); assay: COX-1/2 bio-assay: COX-2; format: biochemical; settings: for IC50: read-out: IC50 ± SD, COX-2; for SI(COX-2/COX-1): selectivity index COX-2/COX-1
T1 sequence (P35354 18-604): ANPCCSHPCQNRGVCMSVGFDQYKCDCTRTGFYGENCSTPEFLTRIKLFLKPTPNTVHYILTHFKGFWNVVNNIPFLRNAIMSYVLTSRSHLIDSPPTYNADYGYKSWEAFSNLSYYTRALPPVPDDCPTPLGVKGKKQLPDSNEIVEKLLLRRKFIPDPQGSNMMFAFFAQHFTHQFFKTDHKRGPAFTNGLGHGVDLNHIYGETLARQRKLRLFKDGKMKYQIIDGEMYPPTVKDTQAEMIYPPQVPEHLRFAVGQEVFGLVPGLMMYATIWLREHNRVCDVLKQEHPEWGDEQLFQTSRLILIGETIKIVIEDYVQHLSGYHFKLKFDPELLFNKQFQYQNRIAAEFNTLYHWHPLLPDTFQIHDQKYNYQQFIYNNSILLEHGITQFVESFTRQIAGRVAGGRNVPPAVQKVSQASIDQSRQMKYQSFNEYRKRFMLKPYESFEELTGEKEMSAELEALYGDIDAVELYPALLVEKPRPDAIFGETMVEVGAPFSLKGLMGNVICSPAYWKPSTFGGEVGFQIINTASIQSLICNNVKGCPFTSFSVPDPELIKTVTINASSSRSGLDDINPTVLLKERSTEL
Source text: (§1) Cyclooxygenases (COX) are the key enzymes capable of the conversion of arachidonic acid to prostaglandins.

COX-1 = COX-1 (Homo sapiens, UniProt P23219); assay: COX-1/2 bio-assay: COX-1; format: biochemical; settings: read-out: IC50 ± SD, COX-1
Source text: as §1

hot plate = hot plate technique (central analgesic); format: in vivo; settings: for Potency: Relative to indomethacin at 120 min.
animal gastric mucosa = assay: ulcerogenic liability; format: in vivo; settings: in vivo
[2] = test system: carrageenan-induced paw edema; assay: carrageenan-induced paw edema technique (anti-inflammatory); format: in vivo; settings: for Observed (1/property): 1/(% inhibition of edema thickness at 3 h effect); as to Observed (1/property): test concentration or dose not given here; as to Potency (% Inhibition relative to indomethacin at 3 h effect): test concentration or dose not given here
Source text: Anti-inflammatory properties of the ibuprofen-amino acid conjugate (5a-j) and ibuprofen-amino acid-4-aminophenol conjugates 7a-j were studied by the standard carrageenan-induced paw edema technique (Naumov, R. N. et al., Bioorg. Med. Chem. Lett. 2015, 25, 2314-2320; Tiwari, A. D. et al., Org. Biomol. Chem. 2014, 12, 7238-7249).

[3] = % inhibition of edema thickness at 3 h effect, Table 7
[4] = anti-inflammatory property (% inhibition of edema at 3 h), Table 8

COX-1, sequence (P23219 24-599): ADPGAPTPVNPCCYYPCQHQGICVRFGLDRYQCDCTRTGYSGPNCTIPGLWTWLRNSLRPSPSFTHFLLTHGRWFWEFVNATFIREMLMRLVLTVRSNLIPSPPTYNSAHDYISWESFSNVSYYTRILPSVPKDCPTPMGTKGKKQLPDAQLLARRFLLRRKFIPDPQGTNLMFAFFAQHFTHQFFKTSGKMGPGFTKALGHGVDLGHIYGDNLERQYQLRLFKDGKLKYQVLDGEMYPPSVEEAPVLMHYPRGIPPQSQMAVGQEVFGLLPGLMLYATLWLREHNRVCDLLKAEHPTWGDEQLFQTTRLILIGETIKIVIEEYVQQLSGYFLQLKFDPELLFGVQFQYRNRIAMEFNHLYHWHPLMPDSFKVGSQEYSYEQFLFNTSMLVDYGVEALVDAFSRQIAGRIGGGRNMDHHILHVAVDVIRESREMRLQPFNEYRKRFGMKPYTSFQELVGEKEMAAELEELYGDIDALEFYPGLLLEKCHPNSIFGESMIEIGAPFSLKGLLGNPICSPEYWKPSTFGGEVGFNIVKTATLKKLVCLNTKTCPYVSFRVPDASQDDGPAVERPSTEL

| Compound | Potency [1] | % Inhibition/protection [1] [%] | Writing reflex ± SEM [1] | IC50 (COX-2) [µM] | SI(COX-2/COX-1) (COX-2) | IC50 (COX-1) [µM] | melting point [°C] | % protection (hot plate; After 30 min.) | Latency period ± SEM (hot plate; After 30 min.) [s] | % protection (hot plate; After 60 min.) | Latency period ± SEM (hot plate; After 60 min.) [s] | % protection (hot plate; After 90 min.) | Latency period ± SEM (hot plate; After 90 min.) [s] | % protection (hot plate; After 120 min.) | Latency period ± SEM (hot plate; After 120 min.) [s] | Potency (hot plate) | % Incidence of ulcer divided by 10 (animal gastric mucosa) | Average of ulcer number (animal gastric mucosa) | Average severity of ulcer (animal gastric mucosa) | Number of animals with ulcer (animal gastric mucosa) | other results |
| --- | --- | --- | --- | --- | --- | --- | --- | --- | --- | --- | --- | --- | --- | --- | --- | --- | --- | --- | --- | --- | --- |
| CC(C)Cc1ccc(C(C)C(=O)N[C@@H](Cc2ccccc2)C(=O)Nc2ccc(O)cc2)cc1 (stereo partly drawn) [Compound 7e, (2S)-N-(4-Hydroxyphenyl)-2-(2-(4-isobutylphenyl)propanamido)-3-phenylpropanamide] | 134 | 73.6 | 25.7 ± 1.0 | 69.8 ± 4.93 | 5.3 | 13.2 ± 0.65 | 168.7 | (78.1) % | 4.31 ± 0.04 | (104.9) % | 4.57 ± 0.03 | (136.4) % | 5.20 ± 0.07 | (144.3) % | 5.35 ± 0.03 | 255 | 0 | 0 | 0 | 0 | Ulcer index (animal gastric mucosa): 0; Observed (1/property) ([2]; Table 7): 0.01333; % inhibition of edema ([2]; 1 h): 38%; Mean edema thickness ([2]; 1 h): 0.76 ± 0.05 mm; % inhibition of edema ([2]; 2 h): 69%; Mean edema thickness ([2]; 2 h): 0.47 ± 0.03 mm; % inhibition of edema ([2]; 3 h): 75%; Mean edema thickness ([2]; 3 h): 0.32 ± 0.01 mm; % inhibition of edema ([2]; 4 h): 77%; Mean edema thickness ([2]; 4 h): 0.29 ± 0.03 mm; % inhibition of edema ([2]; 24 h): 11%; Mean edema thickness ([2]; 24 h): 0.17 ± 0.03 mm; Observed property [2, 3]: 75%; Observed property [2, 4]: 75%; Potency (% Inhibition relative to indomethacin at 3 h effect) [2]: 94% |
| CC(C)Cc1ccc(C(C)C(=O)NCC(=O)Nc2ccc(O)cc2)cc1 (stereo not drawn) [Compound 7a, N-(2-((4-Hydroxyphenyl)amino)-2-oxoethyl)-2-(4-isobutylphenyl)propanamide] | 139 | 76.4 | 23.0 ± 0.9 | 78.3 ± 5.54 | 29.0 | 2.7 ± 0.13 | 175.9 | (97.1) % | 4.77 ± 0.07 | (94.6) % | 4.34 ± 0.04 | (86.4) % | 4.10 ± 0.02 | (81.7) % | 3.98 ± 0.11 | 144 | 0 | 0 | 0 | 0 | Ulcer index (animal gastric mucosa): 0; Observed (1/property) ([2]; Table 7): 0.01316; % inhibition of edema ([2]; 1 h): 41%; Mean edema thickness ([2]; 1 h): 0.73 ± 0.04 mm; % inhibition of edema ([2]; 2 h): 65%; Mean edema thickness ([2]; 2 h): 0.53 ± 0.03 mm; % inhibition of edema ([2]; 3 h): 76%; Mean edema thickness ([2]; 3 h): 0.31 ± 0.02 mm; % inhibition of edema ([2]; 4 h): 83%; Mean edema thickness ([2]; 4 h): 0.21 ± 0.02 mm; % inhibition of edema ([2]; 24 h): 42%; Mean edema thickness ([2]; 24 h): 0.11 ± 0.03 mm; Observed property [2, 3]: 76%; Observed property [2, 4]: 76%; Potency (% Inhibition relative to indomethacin at 3 h effect) [2]: 95% |
| CC(C)Cc1ccc(C(C)C(=O)N[C@H](C(=O)Nc2ccc(O)cc2)C(C)C)cc1 (stereo partly drawn) [Compound 7h, (2S)-N-(4-Hydroxyphenyl)-2-(2-(4-isobutylphenyl)propanamido)-3-methylbutanamide] | 137 | 75.3 | 24.0 ± 0.4 | 133 ± 9.4 | 12.8 | 10.4 ± 0.51 | 202.2 | (58.3) % | 3.83 ± 0.02 | (62.3) % | 3.62 ± 0.03 | (58.6) % | 3.49 ± 0.18 | (50.7) % | 3.30 ± 0.02 | 90 | 0 | 0 | 0 | 0 | Ulcer index (animal gastric mucosa): 0; Observed (1/property) ([2]; Table 7): 0.01333; % inhibition of edema ([2]; 1 h): 11%; Mean edema thickness ([2]; 1 h): 1.09 ± 0.06 mm; % inhibition of edema ([2]; 2 h): 54%; Mean edema thickness ([2]; 2 h): 0.69 ± 0.05 mm; % inhibition of edema ([2]; 3 h): 75%; Mean edema thickness ([2]; 3 h): 0.32 ± 0.03 mm; % inhibition of edema ([2]; 4 h): 48%; Mean edema thickness ([2]; 4 h): 0.65 ± 0.04 mm; % inhibition of edema ([2]; 24 h): 21%; Mean edema thickness ([2]; 24 h): 0.15 ± 0.03 mm; Observed property [2, 3]: 75%; Observed property [2, 4]: 75%; Potency (% Inhibition relative to indomethacin at 3 h effect) [2]: 94% |
